Source: patent US20030017186A1, “Carboxylic acid fluorides as pesticides” (priority 1999, published 2003)

Columns and labels:
[1] = test system: Broad-horned flour beetle (Gnathocerus cornutus) larvae; experiment: Fumigation test in glass vessel, broad-horned flour beetle larvae; format: in vivo; conditions: GNATCO larvae; Example 5; ACF 50.6/48.2/51.4 g/m^3, SF 47.4/44.6/41 g/m^3 (1st/2nd/3rd fumigation); 23/23/22° C.
From the text: (§1) a3) Broad-horned flour beetle (Gnathocerus cornutus)=GNATCO
(§2) The test organisms, separated by species, were placed into a glass vessel measuring 30 cm×30 cm×60 cm, which was sealed with a glass lid so as to be airtight. The adults and the larvae of the mealworm beetle (Tenebrio molitor) and the broad-horned flour beetle (Gnathocerus cornutus) were placed into small glass vessels approximately 5 cm in diameter, which were closed with a gauze lid and in which they could freely move about. The larvae of the rice weevil had burrowed into seeds of grain. The wood pest larvae were inserted into small blocks of wood measuring 5 cm×2.5 cm×2 cm. The openings were sealed with wads of cotton wool. Only one each of the larvae of the house longhorn beetle (Hylotrupes bajulus) was inserted into a piece of wood, while 6-8 larvae of the common furniture beetle (Anobium punctatum) were inserted into each piece of wood.
(§3) The respective gas was then introduced into the fumigation vessel through a gas line from a gas tank that contained the specified amount of gas. After a defined time period, the fumigation vessel was purged with compressed air. The discharged gas was purified by an attached gas scrubber.
(§4) The beetles were observed until they died. This point was recorded for each species. The larvae of the wood pests as well as the larvae of the rice weevil (Sitophilus oryzae) had to be picked out of the wood or the grain to check their condition. If any of the animals were still alive, the wooden test blocks remaining in the vessel were fumigated again and were reexamined after the corresponding time span had elapsed. The same number of animals in the untreated control was also checked at each point.
(§5) The vitality of the animals was checked at certain time intervals. The beetles could be observed through the fumigation vessel. This was also true for the larvae of the mealworm beetle and the broad-horned flour beetle. The wooden test blocks of the wood pest larvae were opened with hammer and chisel. Tweezers were used to pull the rice weevil larvae out of the grain seeds. The exact time intervals and the number of the evaluated pests were documented in the test results.

wood and storage pests = experiment: Fumigation test, wood and storage pests (overall statements); format: in vivo; conditions: Example 5; wood and storage pests
From the text: as §2, §3, §4, §5

[2] = test system: Mealworm beetle (Tenebrio molitor) larvae; experiment: Fumigation test in glass vessel, mealworm beetle larvae; format: in vivo; conditions: TENEMO larvae; Example 5; ACF 50.6/48.2/51.4 g/m^3, SF 47.4/44.6/41 g/m^3 (1st/2nd/3rd fumigation); 23/23/22° C.
From the text: (§6) a1) Mealworm beetle (Tenebrio molitor)=TENEMO
as §2, §3, §4, §5

[3] = test system: Broad-horned flour beetle (Gnathocerus cornutus); experiment: Fumigation test in glass vessel, broad-horned flour beetles; format: in vivo; conditions: GNATCO beetles; Example 5; ACF 50.6/48.2/51.4 g/m^3, SF 47.4/44.6/41 g/m^3 (1st/2nd/3rd fumigation); 23/23/22° C.
From the text: as §1, §2, §3, §4, §5

[4] = test system: American drywood termites (Cryptotermes brevis); experiment: Termite control fumigation test, Cryptotermes brevis; format: in vivo; conditions: Example 6
From the text: (§7) c) American drywood termites (Cryptotermes brevis)=CRYPBR, and Incisitermes tabogae=INCITA
as §2, §3, §4, §5

[5] = test system: Mealworm beetle (Tenebrio molitor); experiment: Fumigation test in glass vessel, mealworm beetles; format: in vivo; conditions: TENEMO beetles; Example 5; ACF 50.6/48.2/51.4 g/m^3, SF 47.4/44.6/41 g/m^3 (1st/2nd/3rd fumigation); 23/23/22° C.
From the text: as §6, §2, §3, §4, §5

[6] = test system: Common furniture beetle (Anobium punctatum); experiment: Fumigation test in glass vessel, common furniture beetles; format: in vivo; conditions: ANOBPU beetles; Example 5; ACF 50.6/48.2/51.4 g/m^3, SF 47.4/44.6/41 g/m^3 (1st/2nd/3rd fumigation); 23/23/22° C.
From the text: (§8) b2) Common furniture beetle (Anobium punctatum)=[…]
as §2, §3, §4, §5

[7] = test system: House longhorn beetle (Hylotrupes bajulus) larvae; experiment: Fumigation test in glass vessel, house longhorn beetle larvae in wood blocks; format: in vivo; conditions: HYLOBA larvae in wood blocks; Example 5; ACF 50.6/48.2/51.4 g/m^3, SF 47.4/44.6/41 g/m^3 (1st/2nd/3rd fumigation); 23/23/22° C.
From the text: (§9) b1) House longhorn beetle (Hylotrupes bajulus)=HYLOBA
as §2, §3, §4, §5

[8] = test system: Rice weevil (Sitophilus oryzae); experiment: Fumigation test in glass vessel, rice weevils; format: in vivo; conditions: SITTOR beetles; Example 5; ACF 50.6/48.2/51.4 g/m^3, SF 47.4/44.6/41 g/m^3 (1st/2nd/3rd fumigation); 23/23/22° C.
From the text: (§10) a2) Rice weevil (Sitophilus oryzae)=SITTOR
as §2, §3, §4, §5

termites = experiment: Termite control fumigation test (overall statements); format: in vivo, Cryptotermes brevis, Incisitermes tabogae; conditions: Example 6; compared with those treated with acetyl fluoride
From the text: as §7, §2, §3, §4
as §5, with “The wooden test blocks of the wood pest larvae were opened with hammer and chisel. Tweezers were used to pull the rice weevil larvae out of the grain seeds.” left out

[9] = test system: Saw-toothed grain beetle (Oryzaephilus surinamensis); experiment: Fumigation test in glass vessel, saw-toothed grain beetles; format: in vivo; conditions: ORYZSA beetles; Example 5; ACF 50.6/48.2/51.4 g/m^3, SF 47.4/44.6/41 g/m^3 (1st/2nd/3rd fumigation); 23/23/22° C.
From the text: a4) Saw-toothed grain beetle (Oryzaephilus surinamensis)=ORYZSA
as §2, §3, §4, §5

Incisitermes tabogae = experiment: Termite control fumigation test, Incisitermes tabogae; format: in vivo; conditions: Example 6
From the text: as §7, §2, §3, §4, §5

[10] = test system: Rice weevil (Sitophilus oryzae) larvae; experiment: Fumigation test in glass vessel, rice weevil larvae in grain seeds; format: in vivo; conditions: SITTOR larvae in grain seeds; Example 5; ACF 50.6/48.2/51.4 g/m^3, SF 47.4/44.6/41 g/m^3 (1st/2nd/3rd fumigation); 23/23/22° C.
From the text: as §10, §2, §3, §4, §5

[11] = test system: House longhorn beetle (Hylotrupes bajulus); experiment: Fumigation test in glass vessel, house longhorn beetles; format: in vivo; conditions: HYLOBA beetles; Example 5; ACF 50.6/48.2/51.4 g/m^3, SF 47.4/44.6/41 g/m^3 (1st/2nd/3rd fumigation); 23/23/22° C.
From the text: as §9, §2, §3, §4, §5

[12] = test system: Common furniture beetle (Anobium punctatum) larvae; experiment: Fumigation test in glass vessel, common furniture beetle larvae in wood blocks; format: in vivo; conditions: ANOBPU larvae in wood blocks; Example 5; ACF 50.6/48.2/51.4 g/m^3, SF 47.4/44.6/41 g/m^3 (1st/2nd/3rd fumigation); 23/23/22° C.
From the text: as §8, §2, §3, §4, §5

[13] = CRYPBR termites, ACF 50.0/53.8 g/m^3, SF 47.8/44.8 g/m^3 (1st/2nd fumigation), 23.7/24° C.
[14] = INCITA termites, ACF 50.0/53.8 g/m^3, SF 47.8/44.8 g/m^3 (1st/2nd fumigation), 23.7/24° C.

SMILES: O=S(=O)(F)F [SF, sulfuryl fluoride, reference compound]
- Number alive, 30 min. after Start of Fumigation [1]: 15
- Number alive, 1 hr. after Start of Fumigation [1]: 0
- Number dead, 30 min. after Start of Fumigation [1]: 0
- Number dead, 1 hr. after Start of Fumigation [1]: 15
- Speed of action compared with acetyl fluoride (wood and storage pests): clearly acts more slowly than acetyl fluoride
- Number alive, 30 min. after Start of Fumigation [2]: 1
- Number alive, 1 hr. after Start of Fumigation [2]: 1
- Number alive, 3 hrs. after Start of Fumigation [2]: 0
- Number dead, 30 min. after Start of Fumigation [2]: 4
- Number dead, 1 hr. after Start of Fumigation [2]: 4
- Number dead, 3 hrs. after Start of Fumigation [2]: 5
- Number alive, 30 min. after Start of Fumigation [3]: 0
- Number dead, 30 min. after Start of Fumigation [3]: 15
- Number alive, 30 min. after 1st Fumigation [4, 13]: 180
- Number alive, 1 hr. after 1st Fumigation [4, 13]: 60
- Number alive, 3 hrs. after 1st Fumigation [4, 13]: 0
- Number dead, 30 min. after 1st Fumigation [4, 13]: 0
- Number dead, 1 hr. after 1st Fumigation [4, 13]: 0
- Number dead, 3 hrs. after 1st Fumigation [4, 13]: 120
- Number of Cryptotermes still alive on reexamination after 24-hour observation period ([4]; out of 60 animals fumigated 1 hour, then 24-hour observation): 7
- Number alive, 30 min. after Start of Fumigation [5]: 0
- Number dead, 30 min. after Start of Fumigation [5]: 10
- Number alive, 30 min. after Start of Fumigation [6]: 0
- Number dead, 30 min. after Start of Fumigation [6]: 6
- Number alive, 1 hr. after Start of Fumigation [7]: 3
- Number alive, 3 hrs. after Start of Fumigation [7]: 0
- Number alive, 6 hrs after Start of Fumigation [7]: 0
- Number dead, 1 hr. after Start of Fumigation [7]: 1
- Number dead, 3 hrs. after Start of Fumigation [7]: 4
- Number dead, 6 hrs after Start of Fumigation [7]: 6
- Number alive, 30 min. after Start of Fumigation [8]: 0
- Number dead, 30 min. after Start of Fumigation [8]: 15
- Liveliness of termites after 1 hour of fumigation (termites): more lively overall
- Number alive, 30 min. after Start of Fumigation [9]: 0
- Number dead, 30 min. after Start of Fumigation [9]: 15
- Condition of Incisitermes on reexamination after 24-hour observation period (Incisitermes tabogae; animals fumigated 1 hour, then 24-hour observation): dead
- Number alive, 30 min. after 1st Fumigation (Incisitermes tabogae; [14]): 90
- Number alive, 1 hr. after 1st Fumigation (Incisitermes tabogae; [14]): 30
- Number alive, 3 hrs. after 1st Fumigation (Incisitermes tabogae; [14]): 0
- Number dead, 30 min. after 1st Fumigation (Incisitermes tabogae; [14]): 0
- Number dead, 1 hr. after 1st Fumigation (Incisitermes tabogae; [14]): 0
- Number dead, 3 hrs. after 1st Fumigation (Incisitermes tabogae; [14]): 60
- Number alive, 1 hr. after Start of Fumigation [10]: 0
- Number dead, 1 hr. after Start of Fumigation [10]: 15
- Number alive, 30 min. after Start of Fumigation [11]: 4
- Number alive, 1 hr. after Start of Fumigation [11]: 2
- Number alive, 3 hrs. after Start of Fumigation [11]: 0
- Number dead, 30 min. after Start of Fumigation [11]: 0
- Number dead, 1 hr. after Start of Fumigation [11]: 2
- Number dead, 3 hrs. after Start of Fumigation [11]: 4
- Number alive, 1 hr. after Start of Fumigation [12]: 3
- Number alive, 3 hrs. after Start of Fumigation [12]: 4
- Number alive, 6 hrs after Start of Fumigation [12]: 0
- Number dead, 1 hr. after Start of Fumigation [12]: 0
- Number dead, 3 hrs. after Start of Fumigation [12]: 0
- Number dead, 6 hrs after Start of Fumigation [12]: 8
